Measurements from ChEMBL document CHEMBL1201862, “PubChem BioAssay data set” (2004).
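Exposure lasted 48 hours, with cells grown in 96-well plates and compounds tested at five concentrations. GI50 is the concentration that inhibits growth by half.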 The source made the active and inactive calls. Rule as the data show it: active = GI50 up to about 1.1 µM and inactive = higher.

What was measured:
Assay in all cases: inhibition of tumour cell growth, NCI panel, 48 h
A549 = tested on: A549
COLO 205 = tested on: COLO 205
HCT-116 = tested on: HCT-116
HOP-62 = tested on: HOP-62
Hs-578T = tested on: Hs-578T
IGROV-1 = tested on: IGROV-1
LOX IMVI = tested on: LOX IMVI
Malme-3M = tested on: Malme-3M
OVCAR-3 = tested on: OVCAR-3
PC-3 = tested on: PC-3
SF-295 = tested on: SF-295
SF-539 = tested on: SF-539
SK-MEL-5 = tested on: SK-MEL-5
SR = tested on: SR
SW-620 = tested on: SW-620
U-251 = tested on: U-251
UACC-257 = tested on: UACC-257
UACC-62 = tested on: UACC-62
A498 = tested on: A498
RXF 393 = tested on: RXF 393

Measured: GI50

Cc1n[nH]c(=O)n1Nc1ccccc1
inactive: A549 > 100 µM | COLO 205 > 100 µM | HCT-116 > 100 µM | HOP-62 > 100 µM | Hs-578T > 100 µM | IGROV-1 > 100 µM | LOX IMVI > 100 µM | Malme-3M > 100 µM | OVCAR-3 > 100 µM | PC-3 > 100 µM | SF-295 > 100 µM | SF-539 > 100 µM | SK-MEL-5 > 100 µM | SR > 100 µM | SW-620 > 100 µM | U-251 > 100 µM | UACC-257 > 100 µM | UACC-62 > 100 µM

N#C[C@H](C(=O)c1ccccc1F)c1nc2ccccc2s1
inactive: A498 33 µM | A549 29 µM | COLO 205 23.7 µM | HCT-116 23.5 µM | HOP-62 20.5 µM | Hs-578T 15.1 µM | IGROV-1 17.8 µM | LOX IMVI 33 µM | Malme-3M 10.4 µM | OVCAR-3 18.5 µM | PC-3 24.2 µM | RXF 393 27.7 µM | SF-295 16.1 µM | SF-539 20.7 µM | SK-MEL-5 26.9 µM | SW-620 32.3 µM | U-251 33.3 µM | UACC-257 66.1 µM | UACC-62 50.8 µM

O=C1/C(=C/c2ccc(O)c(CN3CCCCC3)c2)CCC/C1=C\c1ccc(O)c(CN2CCCCC2)c1
inactive: A498 12.8 µM | A549 16.7 µM | COLO 205 2.55 µM | HCT-116 2.4 µM | HOP-62 5.04 µM | Hs-578T 8.24 µM | IGROV-1 5.75 µM | LOX IMVI 7.74 µM | Malme-3M 13.6 µM | OVCAR-3 5.12 µM | PC-3 7.05 µM | RXF 393 3.24 µM | SF-295 3.25 µM | SK-MEL-5 14 µM | SW-620 5.52 µM | U-251 5.22 µM | UACC-257 10.6 µM | UACC-62 16 µM

O=C(O)C(Cc1ccccc1)NCc1c(O)ccc2c(-c3ccccc3)cc(=O)oc12 (stereo not drawn)
inactive: A549 > 100 µM | COLO 205 > 100 µM | HCT-116 > 100 µM | HOP-62 > 100 µM | Hs-578T > 100 µM | IGROV-1 > 100 µM | LOX IMVI > 100 µM | Malme-3M > 100 µM | OVCAR-3 > 100 µM | PC-3 > 100 µM | RXF 393 > 100 µM | SF-295 > 100 µM | SF-539 > 100 µM | SK-MEL-5 > 100 µM | SR > 100 µM | SW-620 > 100 µM | U-251 > 100 µM | UACC-257 > 100 µM | UACC-62 > 100 µM

Cc1ccc(O)c(-c2cscn2)c1
inactive: A498 15.3 µM | A549 29.7 µM | COLO 205 12.5 µM | HCT-116 30.4 µM | HOP-62 33.3 µM | Hs-578T 32.9 µM | IGROV-1 55.7 µM | LOX IMVI 27.7 µM | Malme-3M > 100 µM | OVCAR-3 35.2 µM | PC-3 39.8 µM | SF-295 40 µM | SF-539 30.8 µM | SK-MEL-5 23.7 µM | SR 40.4 µM | SW-620 51.5 µM | UACC-257 73.1 µM | UACC-62 55 µM

CN/C(=N\N)NS(=O)(=O)c1cc(C)c(Cl)cc1S
inactive: A549 29.9 µM | COLO 205 > 100 µM | HCT-116 66.5 µM | HOP-62 > 100 µM | Hs-578T 20.6 µM | IGROV-1 86.3 µM | LOX IMVI 96.4 µM | Malme-3M 46.8 µM | OVCAR-3 57.5 µM | PC-3 > 100 µM | RXF 393 33.4 µM | SF-539 > 100 µM | SK-MEL-5 30.7 µM | SR 44 µM | SW-620 48.5 µM | U-251 64.1 µM | UACC-257 > 100 µM | UACC-62 53.7 µM

COc1ccc2c(c1)CCc1[nH]c3ccccc3c1CCCC2
inactive: A549 > 10 µM | COLO 205 > 10 µM | HCT-116 > 10 µM | HOP-62 > 10 µM | Hs-578T > 10 µM | IGROV-1 > 10 µM | LOX IMVI > 10 µM | Malme-3M > 10 µM | OVCAR-3 > 10 µM | PC-3 > 10 µM | SF-295 > 10 µM | SF-539 > 10 µM | SK-MEL-5 > 10 µM | SR > 10 µM | SW-620 > 10 µM | U-251 > 10 µM | UACC-257 > 10 µM | UACC-62 > 10 µM

CN(C)C12C=CC=CC3=C(c4ccccc4)C(c4ccccc4)=C(c4ccccc4)C31c1ccccc1C2 (stereo not drawn)
inactive: A549 > 100 µM | COLO 205 > 100 µM | HCT-116 > 100 µM | HOP-62 > 100 µM | Hs-578T > 100 µM | IGROV-1 > 100 µM | PC-3 > 100 µM | SF-295 > 100 µM | SF-539 > 100 µM | SK-MEL-5 > 100 µM | SR > 100 µM | SW-620 > 100 µM | U-251 > 100 µM | UACC-257 > 100 µM

CSc1nc(C)c(CCCl)c(Cl)n1
inactive: A498 > 100 µM | A549 > 100 µM | COLO 205 35.2 µM | HCT-116 36.6 µM | HOP-62 > 100 µM | Hs-578T > 100 µM | IGROV-1 > 100 µM | LOX IMVI 29.6 µM | Malme-3M > 100 µM | OVCAR-3 > 100 µM | PC-3 > 100 µM | RXF 393 > 100 µM | SF-295 > 100 µM | SF-539 > 100 µM | SK-MEL-5 42.1 µM | SW-620 42.6 µM | U-251 > 100 µM | UACC-257 > 100 µM | UACC-62 89.1 µM

Cc1cc(S(=O)(=O)NC2=Nc3cccc4cccc(c34)N2)c(S)cc1Cl
inactive: A549 55.1 µM | COLO 205 84.7 µM | HCT-116 18.1 µM | Hs-578T > 100 µM | IGROV-1 63.5 µM | LOX IMVI 70.5 µM | Malme-3M > 100 µM | OVCAR-3 53.7 µM | PC-3 65.3 µM | RXF 393 97.5 µM | SF-295 39.5 µM | SF-539 > 100 µM | SK-MEL-5 60.5 µM | SR 60 µM | SW-620 78.7 µM | U-251 50 µM | UACC-257 > 100 µM | UACC-62 > 100 µM

C[C@]12CC[C@H]3[C@@H](CC=C4C[C@@H](O)CC[C@@]43C)[C@@H]1C[C@H](N1CCOCC1)[C@@H]2O
inactive: A498 89.3 µM | A549 > 100 µM | COLO 205 > 100 µM | HCT-116 > 100 µM | HOP-62 > 100 µM | Hs-578T 85.5 µM | IGROV-1 > 100 µM | LOX IMVI > 100 µM | Malme-3M > 100 µM | OVCAR-3 > 100 µM | PC-3 > 100 µM | RXF 393 52.4 µM | SF-295 > 100 µM | SF-539 40 µM | SK-MEL-5 77.3 µM | SW-620 > 100 µM | U-251 49.2 µM | UACC-257 > 100 µM | UACC-62 > 100 µM
